Measured values published in PubChem BioAssay AID1259407 (Chemical Carcinogenesis Research Information System (CCRIS), 2018).
Activity calls are given as the source filed them. No rule for the calls is given here.

Tested on: CCRIS mutagenicity, Ames/micronucleus/aberration tests
Assay: CCRIS mutagenicity studies
[1] = Test System: MOUSE LYMPHOMA, Strain/Indicator: L5178Y (TK+/TK-), Metabolic Activation: NONE, Method: SUSPENSION/PLATE
[2] = Test System: AMES SALMONELLA TYPHIMURIUM, Strain/Indicator: TA98, Metabolic Activation: NONE, Method: STANDARD PLATE
[3] = Test System: AMES SALMONELLA TYPHIMURIUM, Strain/Indicator: TA98, Metabolic Activation: RAT, LIVER, S-9, AROCLOR 1254, Method: STANDARD PLATE
[4] = Test System: AMES SALMONELLA TYPHIMURIUM, Strain/Indicator: TA100, Metabolic Activation: NONE, Method: STANDARD PLATE
[5] = Test System: AMES SALMONELLA TYPHIMURIUM, Strain/Indicator: TA100, Metabolic Activation: RAT, LIVER, S-9, AROCLOR 1254, Method: STANDARD PLATE

`C[C@@]1(CO)[C@H](O)CC[C@@]2(C)[C@H]1CC[C@H]1C[C@@H]3C[C@@]12CC[C@]3(O)CO` was tested, and the mutagenic call (End Point: In vitro chromosomal aberrations, Test System: Human (male) peripheral blood lymphocytes, Metabolic Activation: None) was “active; positive”, the mutagenic call (End Point: In vitro micronucleus, Test System: Human (male) peripheral blood lymphocytes, Metabolic Activation: None) was “active; positive; increased trend in all groups; effect depended on age and genetic stat” and the mutagenic call (Test System: AMES SALMONELLA TYPHIMURIUM, Strain/Indicator: TA102, Metabolic Activation: NONE, Method: STANDARD PLATE) was “inactive; negative”. For the same molecule, the mutagenic call (Test System: AMES SALMONELLA TYPHIMURIUM, Strain/Indicator: TA102, Metabolic Activation: RAT, LIVER, S-9, AROCLOR 1254, Method: STANDARD PLATE) was “inactive; negative”, the mutagenic call [1] was “active; positive” and the mutagenic call (Test System: UDS RODENT HEPATOCYTES, Strain/Indicator: THY INCORP (NON-S-PHASE), Metabolic Activation: NONE, Method: AUTORADIOGRAPHY) was “inactive; negative”.

For `CCCCCCCCCCCC(=O)OCCS(=O)(=O)O`, the mutagenic call (Test System: AMES SALMONELLA TYPHIMURIUM, Strain/Indicator: TA98, Metabolic Activation: HAMSTER, LIVER, S-9, AROCLOR 1254, Method: STANDARD PLATE) was “inactive; negative”, the mutagenic call [2] was “inactive; negative” and the mutagenic call [3] was “inactive; negative”. The mutagenic call (Test System: AMES SALMONELLA TYPHIMURIUM, Strain/Indicator: TA100, Metabolic Activation: HAMSTER, LIVER, S-9, AROCLOR 1254, Method: STANDARD PLATE) was “inactive; negative”, the mutagenic call [4] was “inactive; negative” and the mutagenic call [5] was “inactive; negative”. For the same molecule, the mutagenic call (Test System: AMES SALMONELLA TYPHIMURIUM, Strain/Indicator: TA1535, Metabolic Activation: HAMSTER, LIVER, S-9, AROCLOR 1254, Method: STANDARD PLATE) was “inactive; negative”, the mutagenic call (Test System: AMES SALMONELLA TYPHIMURIUM, Strain/Indicator: TA1535, Metabolic Activation: NONE, Method: STANDARD PLATE) was “inactive; negative” and the mutagenic call (Test System: AMES SALMONELLA TYPHIMURIUM, Strain/Indicator: TA1535, Metabolic Activation: RAT, LIVER, S-9, AROCLOR 1254, Method: STANDARD PLATE) was “inactive; negative”. For the same molecule, the mutagenic call (Test System: AMES SALMONELLA TYPHIMURIUM, Strain/Indicator: TA1537, Metabolic Activation: HAMSTER, LIVER, S-9, AROCLOR 1254, Method: STANDARD PLATE) was “inactive; negative”, the mutagenic call (Test System: AMES SALMONELLA TYPHIMURIUM, Strain/Indicator: TA1537, Metabolic Activation: NONE, Method: STANDARD PLATE) was “inactive; negative” and the mutagenic call (Test System: AMES SALMONELLA TYPHIMURIUM, Strain/Indicator: TA1537, Metabolic Activation: RAT, LIVER, S-9, AROCLOR 1254, Method: STANDARD PLATE) was “inactive; negative”. For the same molecule, the mutagenic call [1] was “inactive; negative. reevaluation of results: negative” and the mutagenic call (Test System: MOUSE LYMPHOMA, Strain/Indicator: L5178Y (TK+/TK-), Metabolic Activation: RAT, LIVER, S-9, AROCLOR 1254, Method: SUSPENSION/PLATE) was “inactive; negative. reevaluation of results: negative”.

`O=[N+]([O-])c1ccc2c(c1)cc([N+](=O)[O-])c1ccccc12` was tested, and the mutagenic call (Test System: AMES SALMONELLA TYPHIMURIUM, Strain/Indicator: TA98(1,8-DNP6), Metabolic Activation: NONE, Method: STANDARD PLATE) was “active; positive”, the mutagenic call (Test System: AMES SALMONELLA TYPHIMURIUM, Strain/Indicator: TA98(NR), Metabolic Activation: NONE, Method: STANDARD PLATE) was “active; positive” and the mutagenic call [2] was “active; positive”. The mutagenic call [4] was “active; positive”, the mutagenic call (Test System: AMES SALMONELLA TYPHIMURIUM, Strain/Indicator: YG1021, Metabolic Activation: NONE, Method: STANDARD PLATE) was “active; positive” and the mutagenic call (Test System: AMES SALMONELLA TYPHIMURIUM, Strain/Indicator: YG1024, Metabolic Activation: NONE, Method: STANDARD PLATE) was “active; positive”. For the same molecule, the mutagenic call (Test System: AMES SALMONELLA TYPHIMURIUM, Strain/Indicator: YG1026, Metabolic Activation: NONE, Method: STANDARD PLATE) was “active; positive” and the mutagenic call (Test System: AMES SALMONELLA TYPHIMURIUM, Strain/Indicator: YG1029, Metabolic Activation: NONE, Method: STANDARD PLATE) was “active; positive”.

In the case of `COc1ccc(N=O)cc1`, the mutagenic call [2] is reported as “active; positive”, the mutagenic call [3] is reported as “active; positive” and the mutagenic call [4] is reported as “active; positive”. For the same molecule, the mutagenic call [5] was “active; positive”.
